Four compounds from patent publication US20140066365A1, “USE OF CALIXARENES ASSOCIATED WITH AN ANTIBIOTIC IN THE TREATMENT OF BACTERIAL INFECTIONS” (priority 2011, published 2014) can be followed below.

Test [1] has as its system Escherichia coli, Staphylococcus aureus and Pseudomonas aeruginosa strains. Kind of test: Chessboard technique, summary statements over all strains and combinations tested. The test is classed as cell-based. Particulars: strain not stated. The text has this: 1.3. Procedure: Chessboard Technique
The same procedure is followed for the Cx1. […] Thus 64 ATB/Cx1 combinations are obtained.
The FIC (Fractional Inhibitory Concentration Index) value is defined by the following formula: […]
When FIC≦0.5, there is a synergistic effect between antibiotic A and antibiotic B.
When 0.5<FIC≦1, there is an additive effect between antibiotic A and antibiotic B.
When 1<FIC≦4, there is an indifferent effect between antibiotic A and antibiotic B.
When FIC>4, there is an antagonistic effect between antibiotic A and antibiotic B.
For each strain and each antibiotic/Cx1 combination, the experiments were repeated a minimum of 3 times.

The test system of test [2] is Staphylococcus aureus strain ATCC 29213 (wild type). Kind of test: MIC of the compounds used alone, microdilution in a liquid medium (CLSI). The test is classed as cell-based. To be noted: Staphylococcus aureus. An excerpt:
(§1) The MICs of the antibiotics were previously defined for each strain, by the method of microdilution in a liquid medium (CLSI (Clinical and Laboratory Standards Institute), 2003).
In general terms: Dilution methods test growth across graded concentrations, often in twofold steps.

Test [3] deals with MRSA strain without associated resistance (SaR1). The description is as above. The class given is cell-based, Staphylococcus aureus. Particulars: Staphylococcus aureus, MRSA.
Description: as §1

Assay in test [4]: as above
The class given is cell-based, Staphylococcus aureus. To be noted: Staphylococcus aureus, MRSA.
Description: as §1

Test [5] deals with MRSA strain having a resistance to the aminoglycosides and fluoroquinolones (SaR3). Described as above. The test is classed as cell-based, Staphylococcus aureus. To be noted: Staphylococcus aureus, MRSA.
Description: as §1

Test [6] has as its system PaR3: Pseudomonas aeruginosa. Kind of test: Antibiogram, MIC by the VITEK 2 system. The class given is cell-based. On the procedure: (§2) The bacterial and antibiogramidentification is carried out by the VITEK 2 system (bioMérieux)
For test [7], the system named is Pseudomonas aeruginosa strain PaR2. Kind of test: microbe, parasite or virus in culture. The class given is cell-based. To be noted: Pseudomonas aeruginosa, antibiotic alone (second value of cell), read-out: MIC.
Description: as §1

The test system of test [8] is Escherichia coli strain ATCC 25922 (wild type). The test is described as follows: MIC of the compounds used alone, microdilution in a liquid medium (CLSI). To be noted: Escherichia coli, ATCC25922; antibiotic alone (second value of cell); E. coli ATCC 25922; read-out: Initial MICs. The test is classed as cell-based.
Description: as §1

Test [9] has as its system Pseudomonas aeruginosa strain ATCC 27853 (wild type). The description is as above. The class given is cell-based. To be noted: Pseudomonas aeruginosa, ATCC27853; antibiotic alone (second value of cell); P. aeruginosa ATCC 27853; read-out: MIC.
Description: as §1

The subject of test [10] is penicillinase-producing strain of Escherichia coli without associated resistance (EcR1). The test is described as above. The test is classed as cell-based. To be noted: Escherichia coli, antibiotic alone (second value of cell), read-out: Initial MICs.
Description: as §1

For test [11], the system named is mucoid strain of Pseudomonas aeruginosa PaR5. Described as above. The class given is cell-based. Particulars: Pseudomonas aeruginosa, antibiotic alone (second value of cell), read-out: MIC.
Description: as §1

Test [12] deals with Pseudomonas aeruginosa strain PaR3. The description is as above. The class given is cell-based. Particulars: Pseudomonas aeruginosa, antibiotic alone (second value of cell), read-out: MIC.
Description: as §1

The subject of test [13] is cephalosporinase-hyperproducing strain of Escherichia coli (EcR2). The description is as above. To be noted: Escherichia coli, antibiotic alone (second value of cell), read-out: Initial MICs. The class given is cell-based.
Description: as §1

The subject of test [14] is ESBL-producing strain of Escherichia coli, having an associated resistance to the aminoglycosides (EcR3). The test is described as above. The class given is cell-based. Particulars: Escherichia coli, antibiotic alone (second value of cell), read-out: Initial MICs.
Description: as §1

For test [15], the system named is PaR2: Pseudomonas aeruginosa. The test is classed as cell-based. Here is the method: (§3) The bacterial and antibiogramidentification is carried out by the VITEK 2 system (bioMérieux) and by the disk diffusion technique
Test [16] deals with EcR2: Cephalosporinase-Hyperproducing Strain of Escherichia coli. Kind of test: Antibiogram by the disk diffusion technique. The class given is cell-based. On the procedure: The bacterial and antibiogramidentification is carried out by the VITEK 1 system (bioMérieux) and by the disk diffusion technique
Background: Agar diffusion results depend on both activity and mobility in agar.

Test [17] relates to PaR5: Pseudomonas aeruginosa. Kind of test: Antibiogram by the disk diffusion technique. The class given is cell-based. On the procedure:
as §3

In test [18] the test system is EcR1: Penicillinase-Producing Escherichia coli without Associated Resistance. Kind of test: Antibiogram, MIC by the VITEK 2 system. The class given is cell-based. Particulars: for MIC: Escherichia coli. On the procedure: 5.1 EcR1: Penicillinase-Producing Escherichia coli without Associated Resistance The bacterial and antibiogramidentification is carried out by the VITEK 2 system (bioMérieux) and by the disk diffusion technique.

Test [19] relates to SaR1: Meticillin-Resistant Staphylococcus aureus without Associated Resistance. The test is described as follows: Antibiogram, inhibition diameter (Table D1). The test is classed as cell-based. Here is the method:
as §2

Test [20] shares this test system. Kind of test: Antibiogram, MIC by the VITEK 2 system. To be noted: SaR1. The class given is cell-based. Here is the method:
as §2

Test [21] relates to SaR3: Meticillin-Resistant Staphylococcus aureus. The test is described as follows: Antibiogram by the disk diffusion technique. The class given is cell-based. On the procedure: as §3
Test [22] has as its system SaR4: Meticillin-Resistant Staphylococcus aureus. The test is described as follows: Antibiogram, MIC by the VITEK 2 system. The class given is cell-based. Particulars: SaR4; for MIC: Staphylococcus aureus, read-out: MIC. Here is the method:
as §3

[23] abbreviates: ATCC29213, antibiotic alone (second value of cell), S. aureus ATCC 29213, read-out: Initial MICs.
The mark [24] stands for this setting: antibiotic alone (second value of cell), SaR1, read-out: MIC.
[25] abbreviates: antibiotic alone (second value of cell), SaR4, read-out: MIC.
The mark [26] stands for this setting: antibiotic alone (second value of cell), SaR3, read-out: MIC.

Values after ≈ are worked out from the molar mass of the structure shown. Read-outs that look alike come from different tables or passages of the source. Where only a bound is given, the exact number is not on record here.

For the compound `[H]/N=C(/N)N[C@H]1[C@H](O)[C@@H](O)[C@H](O[C@@H]2O[C@@H](C)[C@](O)(C=O)[C@H]2O[C@@H]2O[C@@H](CO)[C@H](O)[C@@H](O)[C@@H]2NC)[C@@H](N/C(N)=N\[H])[C@@H]1O` [Streptomycin], the “interaction between the antibiotic and Cx1” value in [1] is on record as “synergism”. For the same compound, the MIC in test [2] (setting [23]) worked out at 4 mg/L; in test [3] (setting [24]) it was 4 µg/mL; in test [4] (setting [25]), 4 µg/mL; in test [5] (setting [26]), 4 µg/mL.
For the compound `CN(C)c1cc(NC(=O)CNC(C)(C)C)c(O)c2c1C[C@H]1C[C@H]3[C@H](N(C)C)C(O)=C(C(N)=O)C(=O)[C@@]3(O)C(O)=C1C2=O` [Tigecycline], in [1], the “interaction between the antibiotic and Cx1” value was “synergism”. For the same compound, the MIC in test [2] (ATCC29213, read-out: Initial MICs (mg/L)) was found to be 0.25 mg/L; in test [3], 0.25 µg/mL; in test [4], 0.25 µg/mL; in test [5] it was 0.25 µg/mL.
Consider `CC(C)(O/N=C(\C(=O)N[C@@H]1C(=O)N2C(C(=O)[O-])=C(C[n+]3ccccc3)CS[C@H]12)c1csc(N)n1)C(=O)O` [Ceftazidime], for which the “CA-SFM Interpretation” value in test [6] (Cc CA-SFM 2011) was “Susceptible”; in [15] (Cd CA-SFM 2011), “Susceptible”; in [16] (EcR2, from diameter, CA-SFM 2011) it was “Resistant”; in test [17] (disk diffusion, PaR5, versus critical diameter CA-SFM 2011) it was “Susceptible”; in test [18] (EcR1, MIC against Cc CA-SFM 2011) it was “Susceptible”. The “CLSI Interpretation” value in test [6] (Cc CLSI 2011) is “Susceptible”; in test [15] (Cd CLSI 2011), “Susceptible”; in [16] (EcR2, from diameter, CLSI 2011) it was “Intermediate”; in [17] (disk diffusion, PaR5, versus critical diameter CLSI 2011) it was “Susceptible”; in test [18] (EcR1, MIC against Cc CLSI 2011) it was “Susceptible”. Moreover, the “EUCAST Interpretation” value is listed as “Susceptible” in test [6] (Cc EUCAST 2011); “Susceptible” in test [15] (Cd EUCAST 2011); “Intermediate” in [16] (EcR2, from diameter, EUCAST 2011); “Susceptible” in test [17] (disk diffusion, PaR5, versus critical diameter EUCAST 2011, for ** antibiotics the disk load differs and the EUCAST interpretation is not applicable); “Susceptible” in [18] (EcR1, MIC against Cc EUCAST 2011). Besides, the MIC in test [6] (Pseudomonas aeruginosa, Table H2, read-out: MIC) was 4 µg/mL (≈ 7.32 µM); in test [6] (Table H1) it was 4 µg/mL (≈ 7.32 µM); in test [7] it was 8 µg/mL (≈ 14.6 µM); in [8] it was 0.125 µg/mL; in [9], 4 µg/mL; in [10] it was 0.25 µg/mL. Further, the MIC is 8 µg/mL in [11]; 16 µg/mL in test [12]; 8 µg/mL in [13]; 1 µg/mL in test [14]; at most 1 mg/L in test [18] (EcR1, Table A2, read-out: MIC mg/L (diameter in mm)); at most 1 mg/L in test [18] (EcR1, VITEK 2, Table A1, read-out: MIC). Further, the Results result in [6] (Table H1) is reported as “Susceptible”; in [15] (Table G1, against Dmin-Dmax), “Susceptible”; in test [16] (EcR2, rows that print a diameter, Table B1) it was “Intermediate”; in test [17] (PaR5, Table I1, against Dmin-Dmax), “Susceptible”; in test [18] (EcR1, interpretation of the MIC, Table A1), “Susceptible”. Further, in test [1], the “interaction between the antibiotic and Cx1” value is on record as “synergism”. For the same compound, the Diameter in test [15] (Table G1) is 23 mm; in test [16] (EcR2, disk diffusion, Table B1) it was 20; in [16] (EcR2, Table B2, diameters) it was 20 mm; in test [17] (PaR5, Table I1), 32 mm. Moreover, the diameter in mm in test [15] (Table G2) was 23 mm; in test [17] (disk diffusion inhibition diameter, strain PaR5), 32 mm.
Consider `CC(=O)O[C@H]1C[C@@]2(C)[C@@H](C[C@@H](O)[C@H]3[C@@]4(C)CC[C@@H](O)[C@@H](C)[C@@H]4CC[C@@]32C)/C1=C(\CCC=C(C)C)C(=O)O` [Fusidic acid], for which the results for the Diameter in test [19] and in test [21] (Table E1) were 28 mm and 29 mm, respectively. In addition, the Results entry is listed as “Susceptible” in [19] (from diameter, against Dmin Dmax); “Susceptible” in test [20] (Table D1, from MIC); “Susceptible” in test [21] (Table E1, against Dmin Dmax); “Susceptible” in [22] (Table F1, MIC). Also, the “CA-SFM Interpretation” value in [20] (Cc CA-SFM 2011) was “Susceptible”; in [21] (Cd CA-SFM 2011) it was “Susceptible”; in test [22] (from MIC, Cc CA-SFM 2011) it was “Susceptible”. For the same compound, the “EUCAST Interpretation” value in test [20] (Cc EUCAST 2011) is “Susceptible”; in [21] (Cd EUCAST 2011), “Susceptible”; in test [22] (from MIC, Cc EUCAST 2011), “Susceptible”. The “MIC mg/L” value in [20] (Table D2) is listed as “≦0.5 mg/L”. Further, the MIC in test [20] (Staphylococcus aureus, Table D1, read-out: MIC) is at most 0.5 µg/mL; in test [2] (setting [23]), 2 mg/L; in test [3] (setting [24]), 0.5 µg/mL; in test [4] (setting [25]), 4 µg/mL; in [5] (setting [26]), 0.25 µg/mL; in [22] (Table F1), at most 1 µg/mL. The MIC in [22] (Table F2, MIC) is at most 1 µg/mL. The “interaction between the antibiotic and Cx1” value in test [1] was “synergism”. This compound also gave a diameter in mm in test [21] (Table E2) of 29 mm.
